This test addresses T1, glucagon receptor (Homo sapiens, UniProt P47871).
T1 construct: expressed in transfected cells; host or cells: Chinese Hamster Ovary cells (CHO-HGR), membranes
Nature of the test: glucagon receptor binding assay (125I-glucagon, CHO-HGR membranes). Particulars: for IC50: 125I-glucagon, 60 min at room temperature, read-out: IC50. The gist of the method: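 Membranes from CHO cells expressing glucagon receptor (10 ug protein) in Tris pH 7.4 buffer with EDTA, BSA and bacitracin, incubated with test compound and 125I-glucagon (9 fmol) 60 min at room temperature. Bound radioactivity counted after filtration; nonspecific binding defined with 1 μM native glucagon; 0.5% DMSO.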

The mark [1] stands for this setting: 20 μM, reported where 20 μM did not reduce glucagon binding by 50%.

T1 sequence (P47871 26-477): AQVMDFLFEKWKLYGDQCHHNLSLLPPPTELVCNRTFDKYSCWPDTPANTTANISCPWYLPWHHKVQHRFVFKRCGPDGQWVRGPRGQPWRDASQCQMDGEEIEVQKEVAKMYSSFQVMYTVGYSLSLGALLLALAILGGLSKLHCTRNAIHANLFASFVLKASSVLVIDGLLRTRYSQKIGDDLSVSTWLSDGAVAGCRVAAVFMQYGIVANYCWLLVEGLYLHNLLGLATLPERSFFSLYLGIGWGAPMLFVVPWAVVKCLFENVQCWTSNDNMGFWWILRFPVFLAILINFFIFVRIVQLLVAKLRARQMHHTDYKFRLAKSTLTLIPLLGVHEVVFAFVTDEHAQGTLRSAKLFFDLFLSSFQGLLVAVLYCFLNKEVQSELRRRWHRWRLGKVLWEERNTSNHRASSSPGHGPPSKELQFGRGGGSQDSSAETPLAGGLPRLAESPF

For orientation: inhibition means how much of the control response was suppressed. Under setting [1], `C=CC(O)c1c(C(C)C)nc(C(C)C)c(CCCCC)c1-c1ccc(F)cc1` (racemic) [Example 114, (±)-2,6-Diisopropyl-3-(1-hydroxy-2-propenyl)-4-(4-fluorophenyl)-5-pentylpyridine] showed an inhibition at 20 µM of 38.5%.
On the same count and under the same terms, with `C=CCc1c(C)cc(C)c(C(C)O)c1-c1ccc(F)cc1` (centres unmarked) [Example 196, 3,5-Dimethyl-2-(1-hydroxyethyl)-6-(prop-2-enyl)-4'-fluoro-1,1'-biphenyl] the figure was 40.3%.
A word on the IC50: it is the midpoint of a concentration-inhibition curve. For `CCCCCCC=Cc1c(C(C)C)nc(C(C)C)c(CO)c1-c1ccc(F)cc1` [Example 33, 2,6-Diisopropyl-3-hydroxymethyl-4-(4-fluorophenyl)-5-(1-octenyl)-pyridine], the IC50 amounted to 1.8 µM.
As to `CCCC=Cc1c(C(C)C)nc(C(C)C)c(CO)c1-c1cccc(Cl)c1` [Example 145, 2,6-Diisopropyl-3-hydroxymethyl-4-(3-chlorophenyl)-5-(pent-1-enyl)-pyridine], 20 µM produced 41.4% inhibition under setting [1].
Same read-out and setting: the figure for `CC(C)c1nc(C(C)C)c(CN2CCN(c3ccccc3)CC2)c(-c2ccc(F)cc2)c1CO` [Example 75, 2,6-Diisopropyl-3-hydroxymethyl-4-(4-fluorophenyl)-5-[(4-phenylpiperazin-1-yl)methyl]pyridine] is 34.2%.
Consider `CCCC=Cc1c(C(C)C)nc(C(C)C)c(CO)c1-c1ccc(C)cc1` [Example 129, 2,6-Diisopropyl-3-hydroxymethyl-4-(4-methylphenyl)-5-(Pent-1-enyl)-pyridine], for which the half-maximal inhibitory concentration (IC50) was 1.5 µM.
Take `CC(C)c1nc(C(C)C)c(C(C)O)c(-c2ccc(F)cc2)c1-c1ccccc1` (centres unmarked) [Example 233, 2,6-Diisopropyl-3-(1-hydroxyethyl)-4-(4-fluorophenyl)-5-phenylpyridine]: the IC50 stood at 0.6 µM.
Regarding `CCC=Cc1c(C(C)C)nc(C(C)C)c(CO)c1-c1ccccc1` [Example 13], the IC50 was 3 µM.
As to `CC(C)c1cc(C(C)C)c(CSc2c(F)c(F)cc(F)c2F)c(-c2ccc(F)cc2)c1CO` [Example 288], the IC50 is 2 µM.
For `CCCC=Cc1c(C(C)C)nc(C(C)C)c(CO)c1-c1ccc(SC)cc1` [Example 174, 2,6-Diisopropyl-3hydroxymethyl-4-[4-(methylthio)phenyl]-5-(pent-1-enyl)pyridine], the inhibition at 20 µM under setting [1] was determined as 33.4%.
The same measure, in the same setting: with `CC(C)c1nc(C(C)C)c(CN2CCCC2)c(-c2ccc(F)cc2)c1CO` [Example 71, 2,6-Diisopropyl-3-hydroxymethyl-4-(4-fluorophenyl)-5-(pyrrolindino-methyl)pyridine] the figure was 46.3%; with `CC(C)c1nc(C(C)C)c(CN2CCOCC2)c(-c2ccc(F)cc2)c1CO` [Example 69, 2,6-Diisopropyl-3-hydroxymethyl-4-(4-fluorophenyl)-5-(morpholinomethyl)pyridine], 40.2%.
As for `CC(C)c1nc2c(c(-c3ccc(F)cc3)c1CO)CCC2(C)C` [Example 234, 2-Isopropyl-3-hydroxymethyl-4-(4-fluorophenyl)-7,7-dimethyl-5H-cyclopenta[b]pyridine], the half-inhibitory concentration (IC50) is 8 µM.
Under setting [1], `CCCC=Cc1c(C(C)C)nc(C(C)C)c(CO)c1-c1ccc(CC)cc1` [Example 131, 2,6-Diisopropyl-3-hydroxymethyl-4-(4-ethylphenyl)-5-(pent-1-enyl)-pyridine] showed an inhibition at 20 µM of 37.3%.
On to `CCCCc1c(C(C)C)nc(C(C)C)c(CO)c1-c1ccc(F)cc1` [Example 24, 2,6-Diisopropyl-3-hydroxymethal-4-(4fluorophenyl)-5-butylpyridine], for which the half-maximal inhibitory concentration (IC50) turned out to be 0.75 µM.
`C=CC(O)c1nc(C(C)C)c(CO)c(-c2ccc(F)cc2)c1CCCCC` (centres unmarked) [Example 206, 2-(1-Hydroxyprop-2-enyl)-3-pentyl-4-(4-fluorophenyl)-5-hydroxymethyl-6-isopropylpyridine] showed an inhibition at 20 µM under setting [1] of 44.6%.
As for `CCCCCc1c(C(C)C)nc(C(C)C)c(CO)c1-c1cccc(OC)c1` [Example 171, 2,6-Diisopropyl-3-hydroxymethyl-4-(3-methoxyphenyl)-5-pentylpyridine], the “% Inhibition (20 μM)” value under setting [1] is 48.37%.
Regarding `CCCC=Cc1c(C(C)C)nc(C(C)C)c(CO)c1-c1cccc(OC)c1` [Example 170, 2,6-Diisopropyl-3-hydroxymethyl-4-(3-methoxyphenyl)-5-(pent-1-enyl)pyridine], the inhibition at 20 µM under setting [1] was found to be 45.5%.
As for `CCCCCc1c(C(C)O)nc(C(C)C)c(CO)c1-c1ccc(F)cc1` (centres unmarked) [Example 210, 2-(1-Hydroxyethyl)-3-pentyl-4-(4-fluorophenyl)-5-hydroxymethyl-6-isopropylpyridine], the IC50 was 18 µM.
In the case of `CC=Cc1c(C(C)C)nc(C(C)C)c(CO)c1-c1ccccc1` [Example 12], the IC50 was 1.7 µM.
On the same count and under the same terms, the figure for `CC=Cc1c(C(C)C)nc(C(C)C)c(CO)c1-c1ccc(F)cc1` [Example 21, 2,6-Diisopropyl-3-hydroxymethyl-4-(4-fluorophenyl)-5-(1-propenyl)-pyridine] is 0.8 µM.
Take `CCCCCc1c(C(C)C)nc(C(C)C)c(CN)c1-c1ccc(F)cc1` [Example 121, 2,6-Diisopropyl-3-aminomethyl-4-(4fluorophenyl)-5-pentylpyridine]: under setting [1], the inhibition at 20 µM was 26.2%.
Regarding `CCCC=Cc1c(C(C)C)nc(C(C)C)c(CO)c1-c1ccccc1F` [Example 137, 2,6-Diisopropyl-3-hydroxymethyl-4-(2-fluorophenyl)-5-(pent-1-enyl)-pyridine], the IC50 was 11 µM.
Turning to `CC(C)c1nc(C(C)C)c(CSc2cccc3ccccc23)c(-c2ccc(F)cc2)c1CO` [Example 51, 2,6-Diisopropyl-3-hydroxymethyl-4-(4-fluorophenyl)-5-(1-naphthylthio)-methylpyridine], the IC50 is 16 µM.
Still for that read-out and setting: with `CC(C)c1nc(C(C)C)c(CSCCc2ccccc2)c(-c2ccc(F)cc2)c1CO` [Example 65, 2,6-Diisopropyl-3-hydroxymethyl-4-(4-fluorophenyl)-5-[(phenethyl)-thiomethyl]pyridine] the figure was 0.75 µM.
Turning to `CC(C)c1nc(C(C)C)c(CCCCCCCCC(=O)O)c(-c2ccc(F)cc2)c1CO` [Example 91], the inhibition at 20 µM under setting [1] stood at 14.2%.
For the molecule `CCCCCc1c(C(C)C)nc(C)c(CO)c1-c1ccc(F)cc1` [Example 198, 2-Isopropyl-3-pentyl-4-(4-fluorophenyl)-5-hydroxymethyl-6-methylpyridine], the 50% inhibitory concentration (IC50) stood at 17 µM.
With `CC(C)c1nc(C(C)C)c(CCCCO)c(-c2ccc(F)cc2)c1CO` [Example 88, 2,6-Diisopropyl-3-hydroxymethyl-4-(4-fluorophenyl)-5-(4-hydroxy-butyl)pyridine], the inhibition at 20 µM under setting [1] was determined as 24.8%.
Regarding `CCCCCc1c(C(C)C)nc(C(C)C)c(CO)c1-c1ccccc1C` [Example 142, 2,6-Diisopropyl-3-hydroxymethyl-4-(2-methylphenyl)-5pentylpyridine], under setting [1], testing at 20 µM gave an inhibition of 33.1%.
For `CC(C)c1nc(C(C)C)c(CSc2cccc(C(F)(F)F)c2)c(-c2ccc(F)cc2)c1CO` [Example 48, 2,6-Diisopropyl-3-hydroxymethyl-4-(4-fluorophenyl)-5-[((3-trifluoro-methyl)phenyl)thio]methylpyridine], the IC50 is 1.8 µM.
Same read-out and setting: the figure for `CCCCCc1c(C(C)C)nc(C(C)C)c(CO)c1-c1cccnc1` [Example 186, 2,6-Diisopropyl-3-hydroxymethyl-4-(pyridin-3-yl)-5-pentylpyridine] is 20 µM.
With `CC(C)c1ccc(SCc2c(C(C)C)nc(C(C)C)c(CO)c2-c2ccc(F)cc2)cc1` [Example 63, 2,6-Diisopropyl-3-hydroxymethyl-4-(4-fluorophenyl)-5-[(4-isopropyl-phenyl)thio]methylpyridine], the IC50 was 1.7 µM.
Consider `CC(C)c1nc(C(C)C)c(CO)c(-c2ccc(F)cc2)c1/C=C/c1ccccc1` [Example 34, 2,6-Diisopropyl-3hydroxymethyl-4-(4-fluorophenyl)-5-[2(E)-phenyl-ethenyl]pyridine], for which the IC50 was determined as 0.6 µM.
Same read-out and setting: with `Cc1c(F)c(F)c(SCc2c(C(C)C)cc(C(C)C)c(CO)c2-c2ccc(F)cc2)c(F)c1F` [Example 286] the figure was 18 µM; with `CCCCCc1c(C(C)C)nc(C(C)C)c(C(C)O)c1-c1ccccc1O` (single isomer, unassigned) [Example 164-D1, 2,6-Diisopropyl-3-(1-hydroxyethyl)-4-(2-hydroxyphenyl)-5-pentylpyridine], 0.045 µM; with `CCCCC=Cc1c(C(C)C)nc(C(C)C)c(CO)c1-c1ccc(F)cc1` [Example 19, 2,6-Diisproyl-3-hyroxymethyl-4-(4-fluorophenyl)-5-(1-hexenyl)-pyridine], 0.7 µM.
Under setting [1], `CCCCCc1c(C(C)C)nc(C(C)C)c(C(O)CCCC)c1-c1ccc(F)cc1` (racemic) [Example 115, (±)-2,6-Diisopropyl-3-(1-hydroxypentyl)-4-(4-fluorophenyl)-5pentyl-pyridine] yielded an inhibition at 20 µM of 21.1%.
With `Cc1ccc(CCCc2c(C(C)C)nc(C(C)C)c(CO)c2-c2ccc(F)cc2)cc1` [Example 86, 2,6-Diisopropyl-3-hydroxymethyl-4-(4-fluorophenyl)-5-[3-(4methyl-phenyl)propyl]pyridine], the concentration for half-maximal inhibition (IC50) is 1.1 µM.
As to `Cc1ccc(SCc2c(C(C)C)cc(C(C)C)c(C(C)O)c2-c2ccc(F)cc2)cc1` (single isomer, unassigned; (+)) [Example 249, (+)-3,5-Diisopropyl-2-[(p-tolylthio)methyl]-6-(1-hydroxyethyl)-4'-fluoro-1,1'-biphenyl], the 50% inhibitory concentration (IC50) is 0.13 µM.
Same read-out and setting: with `COc1cccc(SCc2c(C(C)C)nc(C(C)C)c(CO)c2-c2ccc(F)cc2)c1` [Example 54, 2,6-Diisopropyl-3-hydroxymethyl-4-(4-fluorophenyl)-5-[(3-methyoxy-phenyl)thio]methylpyridine] the figure was 1.8 µM.
`CCCCCc1c(C(C)C)cc(C(C)C)c(C(C)O)c1-c1ccc(F)cc1` (centres unmarked) [Example 191, 3,5-Diisopropyl-2-(1-hydroxyethyl)-6-pentyl-4'-fluoro-1,1'-biphenyl]: the IC50 came to 0.13 µM.

For the origin of these results see patent US6218431A, “Substituted biphenyls” (Bayer Corporation, priority 1997, dated 2001).
